Values of other authors, collected in US12324811B2, “Intranasal formulation” (CIPLA LIMITED, priority 2018, dated 2025).

Key:
[1] = active metabolite
[2] = oral administration
[3] = intranasally administered, children and adults

**Q.** Which “contribution to biological activity of midazolam” value [1] does the source give for `OCc1ncc2n1-c1ccc(Cl)cc1C(c1ccccc1F)=NC2` [alpha1-hydroxymidazolam] here?
**A.** The value was 10%.

**Q.** For Midazolam, which “drug reaching the bloodstream” value [2] is on record?
**A.** The value was 50%.

**Q.** What about the onset of action [3] of the same molecule?
**A.** The onset of action was “about 10 minutes”.
